Laboratory results reported in patent US5189018A, “Method for reduction of central nervous system (CNS) edema resulting from head and spinal cord trauma” (Wayne State University, priority 1991, dated 1993).
Non-standard residues stand in square brackets, D forms with d. Residues, ends and D or L forms follow the SMILES beside them. Met(O2) = CS(=O)(=O)CC[C@H](N)C(=O)O

What was measured:
[1] = system: blood brain barrier permeability; set-up: species or system rat (Wistar); details: rat, in vivo
Source text: (§1) Applicant has developed a reliable physiologic model of potentially reversible, controlled fixed and closed-head injury in the laboratory rat (Wistar, Harlan Sprague-Dawley, Inc. Indianapolis, Ind.) that mimics many of the features of moderate concussion in humans. The model permits long term examination of subsequent cerebrovascular pathophysiological sequelae in conscious, unrestrained animals.
A rat anesthetized with halothane was mounted in a prone position on the test board and the head was fixed in position by means of the bite plate 30 over which the upper incisors were engaged as shown in FIG. 1c. […]
Brain vascular volume (BVS) and permeability were determined simultaneously utilizing modified methods of Rapoport, as described below (18). […] Moreover, estimates of BVS determined with either tracer are in agreement with published values obtained at more conventional time-intervals, e.g., two to ten minutes, after intravenous injection with an error of less than 4%. […]
The experimental protocol for the measurement of blood-to-brain transfer of diffusion-limited substances such as sucrose involved surgical implantation of catheters, one in a femoral vein, the other in the opposite femoral artery, under halothane anesthesia. […] The behavior of the animal was carefully monitored. […]

intracranial pressure = system: intracranial pressure; set-up: species or system rat (Wistar); details: rat, in vivo
Source text: as §1
A rat anesthetized with halothane was mounted in a prone position on the test board and the head was fixed in position by means of the bite plate 30 over which the upper incisors were engaged as shown in FIG. 1c. The board angle of recline and the axis of pendulum rotation were adjustable to permit a flat or angled (3°-5° ) strike on the chosen head impact site. The optimum applied force/angle was selected from the nomogram. The pendulum was raised to the desired angle and released through a quick-release mechanism to fall into impact with the head. Forces developed by this means ranged from 60 to 85 pounds. […]
Intracranial pressures were determined in separate but identically treated animals. […] A Camino 431 miniature pressure sensor was inserted into the tubing and pressure was measured on Camino 420 Digital Pressure Monitor System. Intracranial pressure measurements were monitored from 5 minutes before and up to […] following head impaction. […]

[2] = Toxicity of subcutaneous doses in the rat model; type: in vivo; details: doses up to four times 27.2 ug (65-75 ug/kg), s.c.
[3] = modified peptide less susceptible to enzymatic degradation, versus ACTH4-10; cited from earlier work
cisplatin neuropathy = details: in vivo; cited from earlier work
[4] = system: dementias; alcoholic inebriation; details: human, in vivo; cited from earlier work

CS(=O)(=O)CC[C@H](N)C(=O)N[C@@H](CCC(=O)O)C(=O)N[C@@H](Cc1c[nH]cn1)C(=O)N[C@@H](Cc1ccccc1)C(=O)N[C@H](CCCCN)C(=O)N[C@@H](Cc1ccccc1)C(=O)O [Organon 2766, Met (O2) Glu-His-Phe-D-Lys-Phe] (H-[Met(O2)]EHF[dK]F-OH)
permeability of the blood-brain barrier at high dose [1]: dramatically increased | ICP in uninjured animals (intracranial pressure): not different from control animals | lethality [2]: not lethal | half life in vivo [3]: longer half life | cytotoxic effect of cisplatin (cisplatin neuropathy): without adversely effecting | toxic effects (cisplatin neuropathy): No toxic effects were noted | toxicity and side effects in humans [4]: non-toxic and had no serious side effects
